In patent US11180504B2 (ORCHID PHARMA LTD., priority 2016, dated 2021) one finds MIC data, which are given here for 14 compounds.

By MIC is commonly meant the smallest concentration in the dilution series that meets the test's criterion for growth inhibition.

The test system of assay [1] is carbapenem sensitive Escherichia coli. Put plainly: MIC by broth micro-dilution (CLSI), carbapenem sensitive E. coli. In kind it is cell-based. (In broth dilution the organism is exposed to a series of concentrations in liquid medium.)
The test system of assay [2] is carbapenemase producing K. pneumoniae. In words: MIC by broth micro-dilution (CLSI), carbapenemase producing K. pneumoniae. It counts as cell-based, Klebsiella pneumoniae.
Assay [3] concerns methicillin-sensitive Staphylococcus aureus. In words: MIC by broth micro-dilution (CLSI), methicillin-sensitive S. aureus. It counts as cell-based. To be noted: MSSA S. aureus ATCC29213.
In assay [4] the test system is carbapenem sensitive Pseudomonas aeruginosa. In words: MIC by broth micro-dilution (CLSI), carbapenem sensitive P. aeruginosa. It counts as cell-based.
Where [5] appears, read: Escherichia coli, ATCC25922, ESBL −ve E. coli ATCC25922, read-out: MIC.
Where [6] appears, read: Klebsiella pneumoniae, ATCCBAA1705, KPC-2 K. pneumoniae ATCC BAA-1705, read-out: MIC.
[7] abbreviates: Staphylococcus aureus, ATCC 29213 / MSSA, read-out: MIC.
The mark [8] stands for this setting: Pseudomonas aeruginosa, ATCC27853, Meropenem susceptible P. aeruginosa ATCC27853, read-out: MIC.
Where [9] appears, read: KPC-2 K. pneumoniae ATCC BAA-1705.
The mark [10] stands for this setting: Meropenem susceptible P. aeruginosa ATCC27853.

Values after ≈ are worked out from the molar mass of the structure shown. Read-outs that look alike come from different tables or passages of the source.

For `C[C@@H](NC(=O)Cn1cnnn1)[C@H]1C(=O)N2C(C(=O)O)=C(S[C@@H]3CN[C@H](C(=O)N4CCN(C(=O)[C@H]5C[C@@H](N)CN5)CC4)C3)[C@H](C)[C@H]12` [Example 434, (4R,5S,6R)-6-((R)-1-(2-(1H-tetrazol-1-yl)acetamido)ethyl)-3-((3S,5S)-5-(4-((2R,4R)-4-aminopyrrolidine-2-carbonyl)piperazine-1-carbonyl)pyrrolidin-3-ylthio)-4-methyl-7-oxo-1-azabicyclo[3.2.0]hept-2-ene-2-carboxylic acid], the MIC in assay [1] (setting [5]) was found to be 0.5 µg/mL (≈ 0.774 µM); in assay [2] (setting [6]), 2 µg/mL (≈ 3.1 µM); in assay [3] (setting [7]), 2 µg/mL (≈ 3.1 µM); in assay [4] (setting [8]), 2 µg/mL (≈ 3.1 µM).
For the compound `C[C@@H](NC(=O)Cn1nnnc1C(F)(F)F)[C@H]1C(=O)N2C(C(=O)O)=C(S[C@@H]3CN[C@H](C(=O)N(C)C)C3)[C@H](C)[C@H]12` [Example 348, (4R,5S,6R)-3-((3S,5S)-5-(dimethylcarbamoyl)pyrrolidin-3-ylthio)-4-methyl-7-oxo-6-((R)-1-(2-(5-(trifluoromethyl)-1H-tetrazol-1-yl)acetamido)ethyl)-1-azabicyclo[3.2.0]hept-2-ene-2-carboxylic acid], the MIC is 1 µg/mL (≈ 1.78 µM) in assay [1] (setting [5]), 16 µg/mL (≈ 28.5 µM) in assay [2] (setting [6]), 8 µg/mL (≈ 14.3 µM) in assay [3] (setting [7]) and more than 128 µg/mL in assay [4] (setting [8]).
For the compound `C[C@@H](NC(=O)[C@@H](N)Cn1ncnn1)[C@H]1C(=O)N2C(C(=O)O)=C(S[C@@H]3CN[C@H](C(=O)N(C)C)C3)[C@H](C)[C@H]12` [Example 323, (4R,5S,6R)-6-((R) - 1-((S)-2-amino-3-(2H-tetrazol-2-yl)propanamido)ethyl)-3-((3S,5S)-5-(dimethylcarbamoyl)pyrrolidin-3-ylthio)-4-methyl-7-oxo-1-azabicyclo[3.2.0]hept-2-ene-2-carboxylic acid], the MIC in assay [1] (setting [5]) was 2 µg/mL (≈ 3.83 µM); in assay [2] (setting [6]), 8 µg/mL (≈ 15.3 µM); in assay [3] (setting [7]), 16 µg/mL (≈ 30.7 µM); in assay [4] (setting [8]), more than 128 µg/mL.
For `C[C@@H](NC(=O)Cn1cnnn1)[C@H]1C(=O)N2C(C(=O)O)=C(S[C@@H]3CN[C@H](C(=O)N4CC5CCNCC5(CO)C4)C3)[C@H](C)[C@H]12` (single isomer, unassigned) [Example 542], the MIC in assay [1] (ESBL −ve E. coli ATCC25922) was determined as 0.25 µg/mL (≈ 0.414 µM); in assay [2] (setting [9]), 2 µg/mL (≈ 3.31 µM); in assay [3], 4 µg/mL (≈ 6.63 µM); in assay [4] (setting [10]), 2 µg/mL (≈ 3.31 µM).
With `C[C@@H](NC(=O)Cn1cnnn1)[C@H]1C(=O)N2C(C(=O)O)=C(S[C@@H]3CN[C@H](C(=O)N4CCC(CCN)CC4)C3)[C@H](C)[C@H]12` [Example 480], the MIC is 0.25 µg/mL (≈ 0.434 µM) in assay [1] (setting [5]), 1 µg/mL (≈ 1.74 µM) in assay [2] (setting [6]), 2 µg/mL (≈ 3.47 µM) in assay [3] (setting [7]) and 2 µg/mL (≈ 3.47 µM) in assay [4] (setting [8]).
With `C[C@@H](NC(=O)Cn1cnnn1)[C@H]1C(=O)N2C(C(=O)O)=C(S[C@@H]3CN[C@H](C(=O)N4CC[C@@H](NC(=O)CNC(=N)N)C4)C3)[C@H](C)[C@H]12` [Example 567, (4R,5S,6R)-6-((R)-1-(2-(1H-tetrazol-1-yl)acetamido)ethyl)-3-((3S,5S)-5-((R)-3-(2-guanidinoacetamido)pyrrolidine-1-carbonyl)pyrrolidin-3-ylthio)-4-methyl-7-oxo-1-azabicyclo[3.2.0]hept-2-ene-2-carboxylic acid], the MIC in assay [1] (setting [5]) was 0.125 µg/mL (≈ 0.198 µM); in assay [2] (setting [6]), 0.5 µg/mL (≈ 0.79 µM); in assay [3] (setting [7]), 1 µg/mL (≈ 1.58 µM); in assay [4] (setting [8]), 1 µg/mL (≈ 1.58 µM).
Regarding `C[C@@H](NC(=O)Cn1cnnn1)[C@H]1C(=O)N2C(C(=O)O)=C(S[C@@H]3CN[C@H](C(=O)N4CC5CCN(CCN)C5C4)C3)[C@H](C)[C@H]12` (stereo partly drawn) [Example 577, (4R,5S,6R)-6-((R)-1-(2-(1H-tetrazol-1-yl)acetamido)ethyl)-3-((3S,5S)-5-(1-(2-aminoethyl)octahydropyrrolo[3,4-b]pyrrole-5-carbonyl)pyrrolidin-3-ylthio)-4-methyl-7-oxo-1-azabicyclo[3.2.0]hept-2-ene-2-carboxylic acid], the minimal inhibitory concentration (MIC) in assay [1] (setting [5]) stood at 0.25 µg/mL (≈ 0.415 µM); in assay [2] (setting [6]), 2 µg/mL (≈ 3.32 µM); in assay [3] (setting [7]) it was 4 µg/mL (≈ 6.64 µM); in assay [4] (setting [8]) it was 4 µg/mL (≈ 6.64 µM).
Take `C[C@@H](NC(=O)Cn1cnnn1)[C@H]1C(=O)N2C(C(=O)O)=C(S[C@@H]3CN[C@H](C(=O)N4CC5CCNCC5C4)C3)[C@H](C)[C@H]12` (single isomer, unassigned) [Example 527]: the MIC in assay [1] (setting [5]) was 0.125 µg/mL (≈ 0.218 µM); in assay [2] (setting [6]), 1 µg/mL (≈ 1.74 µM); in assay [3] (setting [7]), 4 µg/mL (≈ 6.97 µM); in assay [4] (setting [8]), 1 µg/mL (≈ 1.74 µM).
Regarding `C[C@@H](NC(=O)Cn1nc(C(F)(F)F)nc1N)[C@H]1C(=O)N2C(C(=O)O)=C(S[C@@H]3CN[C@H](C(=O)N(C)C)C3)[C@H](C)[C@H]12` [Example 320, (4R,5S,6R)-6-((R) - 1-(2-(5-amino-3-(trifluoromethyl) - 1H-1,2,4-triazol-1-yl)acetamido)ethyl)-3-((3S,5S)-5-(dimethylcarbamoyl)pyrrolidin-3-ylthio)-4-methyl-7-oxo-1-azabiayclo[3.2.0]hept-2-ene-2-carboxylic acid], the MIC was found to be 1 µg/mL (≈ 1.74 µM) in assay [1] (setting [5]), 4 µg/mL (≈ 6.96 µM) in assay [2] (setting [6]), 2 µg/mL (≈ 3.48 µM) in assay [3] (setting [7]) and 128 µg/mL (≈ 223 µM) in assay [4] (setting [8]).
Regarding `C[C@@H](NC(=O)c1ccccc1-n1cnnn1)[C@H]1C(=O)N2C(C(=O)O)=C(S[C@@H]3CN[C@H](C(=O)N(C)C)C3)[C@H](C)[C@H]12` [Example 373], the MIC in assay [1] (setting [5]) is 32 µg/mL (≈ 57.7 µM); in assay [2] (setting [6]), more than 128 µg/mL; in assay [3] (setting [7]), 4 µg/mL (≈ 7.21 µM); in assay [4] (setting [8]), more than 128 µg/mL.
For the compound `C[C@@H](NC(=O)Cn1cnnn1)[C@H]1C(=O)N2C(C(=O)O)=C(S[C@@H]3CN[C@H](C(=O)N4CCC5CNCC5(CO)C4)C3)[C@H](C)[C@H]12` (single isomer, unassigned) [Example 535], the MIC in assay [1] (setting [5]) came out at 0.25 µg/mL (≈ 0.414 µM); in assay [2] (setting [6]), 2 µg/mL (≈ 3.31 µM); in assay [3] (Staphylococcus aureus, ATCC29213|MSSA, read-out: MIC), 2 µg/mL (≈ 3.31 µM); in assay [4] (setting [8]) it was 1 µg/mL (≈ 1.66 µM).
In the case of `C[C@@H](NC(=O)Cn1cnnn1)[C@H]1C(=O)N2C(C(=O)O)=C(SC3COC4(CNC4)C3)[C@H](C)[C@H]12` (single isomer, unassigned) [Example 558], the minimal inhibitory concentration (MIC) in assay [1] (ESBL −ve E. coli ATCC25922) amounted to 0.5 µg/mL (≈ 1.08 µM); in assay [2] (setting [9]), 2 µg/mL (≈ 4.31 µM); in assay [3], 16 µg/mL (≈ 34.5 µM); in assay [4] (setting [10]), 128 µg/mL (≈ 276 µM).
Regarding `C[C@@H](NC(=O)Cn1cnnn1)[C@H]1C(=O)N2C(C(=O)O)=C(S[C@@H]3CN[C@H](C(=O)N4CCCC45CCCNC5)C3)[C@H](C)[C@H]12` (stereo partly drawn) [Example 503, (4R,5S,6R)-3-((3S,5S)-5-(1,7-diazaspiro[4.5]decane-1-carbonyl)pyrrolidin-3-ylthio)-6-((R)-1-(2-(1H-tetrazol-1-yl)acetamido)ethyl)-4-methyl-7-oxo-1-azabicyclo[3.2.0]hept-2-ene-2-carboxylic acid], the MIC in assay [1] (setting [5]) is 0.5 µg/mL (≈ 0.851 µM); in assay [2] (setting [9]), 1 µg/mL (≈ 1.7 µM); in assay [3] (setting [7]), 2 µg/mL (≈ 3.4 µM); in assay [4] (setting [8]), 16 µg/mL (≈ 27.2 µM).
As to `C[C@@H](NC(=O)Cn1cnnn1)[C@H]1C(=O)N2C(C(=O)O)=C(S[C@@H]3CN[C@H](C(=O)N4CCC5NCCCC54)C3)[C@H](C)[C@H]12` (single isomer, unassigned) [Example 469], the MIC in assay [1] (ESBL −ve E. coli ATCC25922) turned out to be 0.5 µg/mL (≈ 0.872 µM); in assay [2] (setting [9]), 2 µg/mL (≈ 3.49 µM); in assay [3], 4 µg/mL (≈ 6.97 µM); in assay [4] (setting [10]) it was 4 µg/mL (≈ 6.97 µM).
